These results are taken from EP4361157A1, “FUSED TETRACYCLIC COMPOUND, PREPARATION METHOD THEREFOR AND APPLICATION THEREOF IN MEDICINE” (Jiangsu Hengrui Pharmaceuticals Co., Ltd., priority 2021, dated 2022).

Common to all, as to assay type: cell-based
The test system of experiment [1] is AGS cells. As to the kind of experiment: Inhibition of ERK phosphorylation of AGS cells (HTRF method). The note with it: Homo sapiens, AGS, phosphorylated ERK/total ERK ratio, 1 h incubation. How it is done:
AGS cells (Nanjing Cobioer, CBP60476) were cultured in RPMI1640 (Hyclone, SH30809.01) complete medium containing 10% fetal bovine serum. On the first day of the experiment, the AGS cells were seeded into a 96-well plate with complete medium at a density of 40,000 cells/well to form 190 µL of cell suspension per well. The plate was incubated overnight in a cell incubator at 37 °C with 5% CO2.
The next day, 10 µL of serially-diluted test compound prepared from the complete medium was added to each well. The final concentrations of the compound were 9 concentration points obtained by 5-fold serial dilution from 10 µM. A blank control containing 0.5% DMSO was set. The well plate was incubated in a cell incubator at 37 °C with 5% CO2 for 1 h. After completion of incubation, the 96-well cell culture plate was taken out, the medium was removed by pipetting, 200 µL PBS (Shanghai BasalMedia Technologies Co., Ltd., B320) was added to each well, and the cells were washed once. PBS was removed by pipetting, 50 µL of lysis buffer (Cisbio, 64KL1FDF) containing a blocking solution (blocking reagent, Cisbio, 64KB1AAC) was added to each well, and the well plate was lysed on a shaker for 40 min at room temperature with shaking. After lysis, the lysate was pipetted and mixed well, 16 µL of lysate was transferred to two HTRF 96-well assay plates (Cisbio, 66PL96100) per well, and then 4 µL of premixed phosphorylated ERK1/2 antibody solution (Cisbio, 64AERPEG) or 4 µL of premixed total ERK1/2 antibody solution (Cisbio, 64NRKPEG) was added to these two plates. The microplate was sealed with a sealing membrane, centrifuged for 1 min in a microplate centrifuge, and incubated overnight at room temperature in the dark. On the third day, the fluorescence values at an excitation wavelength of 337 nm and at emission wavelengths of 665 nm and 620 nm were read using an ENVISION multifunctional microplate reader (PerkinElmer, ENVISION).
Table 1. Inhibitory activity data for ERK phosphorylation of AGS cells

The subject of experiment [2] is AGS cells. As to the kind of experiment: Inhibition of 3D proliferation of AGS cells (CellTiter-Glo 3D). The note with it: Homo sapiens, 120 h incubation. Here is the method: AGS cells (Nanjing Cobioer, CBP60476) were cultured in a complete medium, namely RPMI1640 medium (Hyclone, SH30809.01) containing 10% fetal bovine serum (Corning, 35-076-CV). On the first day of the experiment, the AGS cells were seeded into a 96-well low adsorption plate (Corning, CLS7007-24EA) at a density of 1,000 cells/well using complete medium to form 90 µL of cell suspension per well. The plate was centrifuged at 2,000rpm for 5 min at room temperature and then incubated overnight in a cell incubator at 37 °C with 5% CO2.
(§1) The next day, 10 µL of serially-diluted test compound prepared from the complete medium was added to each well. The final concentrations of the compound of GP2d cells were 9 concentration points obtained by 3-fold serial dilution from 1 µM, and the final concentrations of the compound of AGS cells were 9 concentration points obtained by 3-fold serial dilution from 10 µM. A blank control containing 0.5% DMSO was set. The well plate was incubated in a cell incubator at 37 °C with 5% CO2 for 120 h. On the seventh day, the 96-well cell culture plate was taken out, 50 µL CellTiter-Glo® 3D reagent (Promega, G9682) was added into each well, the plate was shaken at room temperature for 25 min, pipetted and mixed well, 50 µL of the solution was transferred into a white impermeable 96-well plate (PE, 6005290), and the luminescence signal values were read using a multifunctional microplate reader (PerkinElmer, ENVISION).
(§2) Table 2. Inhibitory activity data for 3D proliferation of AGS and GP2d cells
(In general: ATP-based viability assays read luminescence as a measure of living cells.)

A further experiment has as its system GP2d cells. Briefly: Inhibition of 3D proliferation of GP2d cells (CellTiter-Glo 3D). The note with it: 120 h incubation. How it is done:
GP2d cells (Nanjing Cobioer, CBP60010) were cultured in a complete medium, namely DMEM/high glucose medium (Hyclone, SH30243.01) containing 10% fetal bovine serum (Corning, 35-076-CV). On the first day of the experiment, GP2d cells were seeded into a 96-well low adsorption plate (Corning, CLS7007-24EA) with complete medium at a density of 1,000 cells/well to form 90 µL of cell suspension per well. The plate was centrifuged at 2,000 rpm for 5 min at room temperature and then incubated overnight in a cell incubator at 37 °C with 5% CO2.
as §1, §2

A word on the IC50: it is the concentration needed to halve the response being measured. On to `Oc1cc(-c2nc3c4c(nc(OC[C@@]56CCCN5C[C@H](F)C6)nc4c2F)N2C[C@H]4CC[C@H](N4)[C@H]2CO3)c2c(F)cccc2c1` [Example 3-p1, 5-Fluoro-4-((5aS,6S,9R)-1-fluoro-12-(((2R,7aS)-2-fluorotetrahydro-1H-pyrrolizin-7a(5 H)-yl)methoxy)-5a,6,7,8,9,10-hexahydro-5H-4-oxa-3,10a,11,13,14-pentaaza-6,9-methanonaphtho[1,8-ab]heptalen-2-yl)naphthalen-2-ol], for which the IC50 stood at 17 nM in the experiment with AGS cells [1], 95.3 nM in the experiment with AGS cells [2] and 13 nM in the experiment on GP2d cells.

On to `CCc1cccc2cc(O)cc(-c3nc4c5c(nc(OC[C@@]67CCCN6C[C@H](F)C7)nc5c3F)N3C[C@H]5CC[C@H](N5)[C@H]3CO4)c12` [Example 4-p1, 5-Ethyl-4-((5aS,6S,9R)-1-fluoro-12-(((2R,7aS)-2-fluorotetrahydro-1H-pyrrolizin-7a(5H )-yl)methoxy)-5a,6,7,8,9,10-hexahydro-5H-4-oxa-3,10a,11,13,14-pentaaza-6,9-methanonaphtho[1,8-ab]heptalen-2-yl)naphthalen-2-ol], for which the IC50 is 2 nM in the experiment on AGS cells [1], 14.5 nM in the experiment on AGS cells [2] and 0.8 nM in the experiment with GP2d cells.

As to `Oc1cc(Cl)c(C2CC2)c(-c2nc3c4c(nc(OC[C@@]56CCCN5C[C@H](F)C6)nc4c2F)N2C[C@H]4CC[C@H](N4)[C@H]2CO3)c1` [Example 6-p1, 3-Chloro-4-cyclopropyl-5-((5aS,6S,9R)-1-fluoro-12-(((2R,7aS)-2-fluorotetrahydro-1H-pyrrolizin-7a(5H)-yl)methoxy)-5a,6,7,8,9,10-hexahydro-5H-4-oxa-3,10a,11,13,14-pentaaza-6,9-methanonaphtho[1,8-ab]heptalen-2-yl)phenol], the IC50 in the experiment with AGS cells [1] was 1.2 nM; in the experiment on AGS cells [2], 32.9 nM; in the experiment with GP2d cells, 7.2 nM.

On to `Oc1cc(-c2nc3c4c(nc(OC[C@@]56CCCN5C[C@H](F)C6)nc4c2F)N2C[C@H]4CC[C@H](N4)[C@H]2CO3)c2c(F)c(F)ccc2c1` [Example 8-p1, 5,6-Difluoro-4-((5aS,6S,9R)-1-fluoro-12-(((2R,7aS)-2-fluorotetrahydro-1H-pyrrolizin-7 a(5H)-yl)methoxy)-5a,6,7,8,9,10-hexahydro-5H-4-oxa-3,10a,11,13,14-pentaaza-6,9-methanonaphtho[1,8-ab]heptalen-2-yl)naphthalen-2-ol], for which the IC50 in the experiment on AGS cells [1] is 1.4 nM; in the experiment on AGS cells [2] it was 50.3 nM; in the experiment with GP2d cells, 1.3 nM.

On to `CCc1c(F)ccc2cc(O)cc(-c3nc4c5c(nc(OC[C@@]67CCCN6C[C@H](F)C7)nc5c3F)N3C[C@H]5CC[C@H](N5)[C@H]3CO4)c12` [Example 9-p1, 5-Ethyl-6-fluoro-4-((5aS,6S,9R)-1-fluoro-12-(((2R,7aS)-2-fluorotetrahydro-1H-pyrrolizin-7a(5H)-yl)methoxy)-5a,6,7,8,9,10-hexahydro-5H-4-oxa-3,10a,11,13,14-pentaaza-6,9-methanonaphtho[1,8-ab]heptalen-2-yl)naphthalen-2-ol], for which the values for the IC50 in the experiment with AGS cells [1], in the experiment on AGS cells [2] and in the experiment with GP2d cells were 0.4 nM, 5.8 nM and 0.9 nM, respectively.

For the compound `CCc1c(F)ccc2cc(O)cc(-c3nc4c5c(nc(OCC6(CN7CCC[C@H]7CO)CC6)nc5c3F)N3C[C@H]5CC[C@H](N5)[C@H]3CO4)c12` [Example 17, 5-Ethyl-6-fluoro-4-((5aS,6S,9R)-1-fluoro-12-((1-(((S)-2-(hydroxymethyl)pyrrolidin-1-yl)methyl)cyclopropyl)methoxy)-5a,6,7,8,9,10-hexahydro-5H-4-oxa-3,10a,11,13,14-pentaaza-6,9-methanonaphtho[1,8-ab]heptalen-2-yl)naphthalen-2-ol], the results for the IC50 in the experiment with AGS cells [1], with AGS cells [2] and in the experiment with GP2d cells were 2.8 nM, 52.2 nM and 4.9 nM, respectively.
